From the supplement of paper PMC10307832

Legend:
Assay in all cases: relative viability (nuclei count vs DMSO), 5 days (fraction); higher = more cells survive
Gemcitabine + Pictilisib = compound: Nc1ccn([C@@H]2O[C@H](CO)[C@@H](O)C2(F)F)c(=O)n1 [Gemcitabine] + CS(=O)(=O)N1CCN(Cc2cc3nc(-c4cccc5[nH]ncc45)nc(N4CCOCC4)c3s2)CC1 [Pictilisib] (partner 1 µM)
Method in brief: (§1)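 Nuclei were stained with Hoechst during a one-step fixation (final 0.05% Triton X-100, 1% formaldehyde, 1 ug/ml Hoechst) carried out 5 days after dosing, then counted on 4× images. The cells, lung cancer lines in 1536-well plates, had been dosed by pin tool the day after seeding with one drug alone or a fixed anchor-drug dose plus five library-drug doses (not always all listed) in √10 steps. Relative viability is the nuclei count in treated wells divided by that in vehicle wells, and each value is the median of duplicate plates.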

[1] = compound: Nc1ccn([C@@H]2O[C@H](CO)[C@@H](O)C2(F)F)c(=O)n1 [Gemcitabine] + CC(=O)c1c(C)c2cnc(Nc3ccc(N4CCNCC4)cn3)nc2n(C2CCCC2)c1=O [Palbociclib] (partner 0.5 µM)
Method in brief: as §1

Gemcitabine + Luminespib = compound: Nc1ccn([C@@H]2O[C@H](CO)[C@@H](O)C2(F)F)c(=O)n1 [Gemcitabine] + CCNC(=O)c1noc(-c2cc(C(C)C)c(O)cc2O)c1-c1ccc(CN2CCOCC2)cc1 [Luminespib] (partner 0.01 µM)
Method in brief: as §1

Gemcitabine + OSI-027 = compound: Nc1ccn([C@@H]2O[C@H](CO)[C@@H](O)C2(F)F)c(=O)n1 [Gemcitabine] + COc1cccc2cc(-c3nc([C@H]4CC[C@H](C(=O)O)CC4)n4ncnc(N)c34)[nH]c12 [OSI-027] (partner 0.5 µM)
Method in brief: as §1

| Cell Line | relative viability (Gemcitabine + Pictilisib; first compound 0.001 µM) | relative viability (Gemcitabine + Pictilisib; first compound 0.003162 µM) | relative viability (Gemcitabine + Pictilisib; first compound 0.01 µM) | relative viability (Gemcitabine + Pictilisib; first compound 0.03162 µM) | relative viability (Gemcitabine + Pictilisib; first compound 0.1 µM) | relative viability ([1]; first compound 0.001 µM) | relative viability ([1]; first compound 0.003162 µM) | relative viability ([1]; first compound 0.01 µM) | relative viability ([1]; first compound 0.03162 µM) | relative viability ([1]; first compound 0.1 µM) | relative viability (Gemcitabine + Luminespib; first compound 0.001 µM) | relative viability (Gemcitabine + Luminespib; first compound 0.003162 µM) | relative viability (Gemcitabine + Luminespib; first compound 0.01 µM) | relative viability (Gemcitabine + Luminespib; first compound 0.03162 µM) | relative viability (Gemcitabine + Luminespib; first compound 0.1 µM) | relative viability (Gemcitabine + OSI-027; first compound 0.001 µM) | relative viability (Gemcitabine + OSI-027; first compound 0.003162 µM) | relative viability (Gemcitabine + OSI-027; first compound 0.01 µM) | relative viability (Gemcitabine + OSI-027; first compound 0.03162 µM) | relative viability (Gemcitabine + OSI-027; first compound 0.1 µM) |
| --- | --- | --- | --- | --- | --- | --- | --- | --- | --- | --- | --- | --- | --- | --- | --- | --- | --- | --- | --- | --- |
| NCI-H1734 | 0.455 | 0.387 | 0.233 | 0.151 | 0.113 | 0.318 | 0.293 | 0.174 | 0.149 | 0.131 | 0.159 | 0.157 | 0.119 | 0.136 | 0.119 | 0.506 | 0.343 | 0.166 | 0.121 | 0.111 |
| ABC-1 | 0.907 | 0.832 | 0.599 | 0.38 | 0.278 |  | 0.547 | 0.626 | 0.353 | 0.347 | 0.618 | 1.05 | 0.371 | 0.25 | 0.151 | 0.364 |  | 0.218 | 0.252 | 0.116 |
| NCI-H520 | 0.333 | 0.321 | 0.254 | 0.199 | 0.161 | 0.237 | 0.23 | 0.174 | 0.164 | 0.146 | 0.22 | 0.231 | 0.224 | 0.201 | 0.252 | 0.306 | 0.296 | 0.254 | 0.189 | 0.156 |
| EPLC-272H | 0.286 | 0.115 | 0.304 | 0.232 | 0.143 | 0.384 | 0.323 | 0.275 | 0.244 | 0.21 | 0.145 | 0.323 | 0.337 | 0.16 | 0.135 | 0.334 | 0.298 | 0.159 | 0.136 | 0.105 |
| UMC-11 | 0.942 | 0.908 | 0.821 | 0.714 | 0.228 | 0.295 | 0.36 | 0.287 | 0.284 | 0.233 | 1.18 | 1.15 | 0.834 | 0.829 | 0.47 | 0.474 | 0.474 | 0.478 | 0.352 | 0.197 |
| NCI-H1792 | 0.238 | 0.226 | 0.111 | 0.0979 | 0.0699 | 0.699 | 0.596 | 0.395 | 0.254 | 0.194 | 0.382 | 0.286 | 0.233 | 0.206 | 0.167 | 0.639 | 0.486 | 0.285 | 0.227 | 0.154 |
| NCI-H1993 | 0.855 | 0.804 | 0.651 | 0.695 | 0.647 | 0.656 | 0.575 | 0.524 | 0.443 | 0.379 | 0.61 | 0.85 | 0.579 | 0.508 | 0.45 | 0.539 | 0.534 | 0.541 | 0.503 | 0.518 |
| NCI-H1793 | 0.262 | 0.282 | 0.291 | 0.186 | 0.176 | 0.297 | 0.3 | 0.267 | 0.167 | 0.145 | 0.17 | 0.179 | 0.15 | 0.125 | 0.137 | 0.236 | 0.286 | 0.205 | 0.159 | 0.116 |
